From patent US20100137344A1, “INDUCTION OF ANALGESIA IN NEUROPATHIC PAIN” (University Court of the University of Edinburgh, priority 2006, published 2010)

What was measured:
Type in all cases: in vivo, rat
naïve rats [1] = experiment: Topical application to paws of naïve rats, behavioural reflex testing (PWL, PWT); conditions: topical cinnamaldehyde 1.5 mM; bilateral
Method: (§1) Thermal sensitivity was assessed by measuring paw withdrawal latency (PWL, s) in response to a noxious thermal stimulus (Hargreaves' thermal stimulator, Linton Instrumentation, Diss, UK) directed to the hindpaw mid-plantar glabrous surface. Mechanical sensitivity was recorded as the paw withdrawal threshold (PWT, mN/mm^2) to calibrated von Frey filaments (Stoelting, Ill., US), as previously described^[39]. Sensitivity to noxious cold was assessed by placing animals in a waterbath with an aluminium floor containing 1 cm deep 4° C. water and counting the time the paw was held suspended over a 20 s period.
(§2) Icilin was applied at concentrations of 2.5-500 μM (in water with 0.2% DMF), by placing CCI or naïve rats unrestrained for 5 min in a 1 cm deep waterbath (sufficient to cover paws), which was thermostatically controlled to a temperature of 30° C., or by very lightly anaesthetising rats and immersing hindpaws in small tubes containing 5 ml icilin (500 μM-5 mM, with a vehicle of 45% dimethylformamide in 0.2% aqueous Tween 80) for 5 min, followed by sensory testing for 60-80 mins. The effects of (−)-menthol and its stereoisomers isomenthol (1S,2R,5R-menthol,) and (+)-menthol (1S,2R,5S(+)-menthol) (4-16 mM in 80% ethanol) were also assessed. Relevant vehicles were always assessed in similar experiments. As a contrast, the effect of cinnamaldehyde (1.5 mM in water) and the effect of cinnamaldehyde with additional icilin (80 μM in water with 0.2% DMF) were assessed in naïve animals. The effects of icilin (80 μM) were further assessed in CCI animals that had undergone antisense and mis-sense treatment for knockdown of TRPM8 or immediately following intrathecal injection of either LY 341495 or UBP 1112. […] The effects of brief paw immersion at different temperatures (10-22° C. for 5 min) on CCI rats were assessed by mechanical testing. The effects of intrathecal LY 341495 or UBP 1112 on the reversal of ipsilateral sensitisation in CCI following a 16° C. cool challenge for 5 min were measured. Reflex testing commenced 5 minutes following challenge, unless animals had been anaesthetised, in which case 15 minutes was allowed for recovery. Six replicate animals were tested in all pharmacological experiments.

[2] = tested on: rats with chronic constriction injury (CCI) to sciatic nerve; experiment: Intrathecal application in CCI rats, behavioural reflex testing (PWL, PWT); conditions: for mean percentage reversal of sensitisation by (−)-menthol with antagonist, PWL / mean percentage reversal of sensitisation by (−)-menthol with antagonist, PWT: (−)-menthol 200 nmol plus intrathecal antagonist, 20-30 minutes post-injection; for effect on analgesia by intrathecal icilin: LY 341495 5 nmol, UBP 1112 10 nmol co-administered with icilin 10 nmol; for effect of antagonist alone: intrathecal, data not shown
Method: Pain models were generated under halothane anaesthesia (Zeneca, Cheshire, UK). For the chronic constriction injury (CCI) model of neuropathic pain, four ligatures were tied loosely to constrict the sciatic nerve at mid-thigh level (as described previously^[39]). An inflammatory pain model was generated by injecting 100 μl of Complete Freund's Adjuvant (CFA, Sigma-Aldrich Ltd) into the ventral surface of the right hindpaw^[39]. A model of peripheral demyelination-induced pain was produced by focal application of lysolecithin to the sciatic nerve^[40]. Peak behavioural sensitisation was observed post-surgically between days 10-16 for CCI, 1-3 for CFA, and 7-14 for lysolecithin, when pharmacological and electrophysiological experiments and tissue removal were conducted.
as §1
(§3) The following drugs were applied intrathecally in a 50 μl volume of saline-based vehicle at 37° C.: icilin (2.5-200 μM in saline with 0.2% dimethylformamide, DMF), LY 341495 (100 μM in saline), UBP 1112 (200 μM in saline), 2R,4R-APDC ((2R, 4R)-4-aminopyrrolidine-2,4-dicarboxylate), 300 μM in saline), ACPT-III ((1R,3R,4S)-1-aminocyclopentane-1,3,4-tricarboxylic acid), 3 mM in saline), AP-4, ((L-(1)-2-amino-4-phosphonobutyric acid), 3 mM in saline), naloxone (0.5 mM in saline), NMDA (75 μM in saline) and ACPC (1-aminocyclopropanecarboxylic acid, 15 μM in saline) (Tocris Cookson, Bristol, UK), (−)-menthol (1R,2S,5R-(−)-menthol, 4 mM in saline), cinnamaldehyde (1.5 mM in saline) and Ruthenium Red (5 μM in saline) (Sigma-Aldrich Co. Ltd, UK) and allicin (0.5 mM in saline with 0.5% DMF) and diallyl disulphide (DADS, 1 mM in saline with 0.5% DMF) (LKT Laboratories Inc., St Paul, Minn., USA). Drugs were injected into the L5/6 intrathecal space under brief halothane anaesthesia, using a 25-gauge needle microsyringe (BD Biosciences, Oxford, UK), as described previously^[39] in animals that were at peak levels of behavioural sensitisation. Behavioural reflex testing commenced 15 min following injection to allow recovery from anaesthesia^[40,41,42] and continued every 5 min thereafter until readings returned to baseline levels (n=6 in each case). We, and others^[40,41,42] find complete recovery from anaesthetic by 15 minutes. All appropriate controls were carried out to eliminate the possibility of effects due to vehicle or to injection procedure.
(§4) The TRPM8 channel activators, icilin and (−)-menthol were tested in CCI and naïve animals. The effects of icilin were additionally assessed in animals with CFA-induced inflammation or with lysolecithin-induced demyelination. Icilin was also co-administered with the μ-opioid receptor antagonist naloxone, the Group II metabotropic glutamate receptor (mGluR) antagonist, LY 341495, or the Group III mGluR antagonist, UBP 1112. The effects of these antagonists alone as well as effects of the Group II mGluR agonist, 2R,4R-APDC and the Group III mGluR agonists, ACPT-III and AP-4, were assessed in CCI animals. The TRPA1 channel activator, cinnamaldehyde, alone and with icilin, was tested in CCI animals and in naïve animals. Further TRPA1 channel activators, allicin and diallyl disulphide were assessed in naïve animals. Both icilin and cinnamaldehyde effects in CCI animals were also investigated in the additional presence of Ruthenium Red.

[3] = tested on: rats sensitised by the TRPA1 activator cinnamaldehyde; experiment: Cinnamaldehyde-induced sensitisation and its reversal by icilin (PWL, PWT); conditions: difference from prior baseline, no icilin
Method: as §1, §3, §4
Icilin was applied at concentrations of 2.5-500 μM (in water with 0.2% DMF), by placing CCI or naïve rats unrestrained for 5 min in a 1 cm deep waterbath (sufficient to cover paws), which was thermostatically controlled to a temperature of 30° C., or by very lightly anaesthetising rats and immersing hindpaws in small tubes containing 5 ml icilin (500 μM-5 mM, with a vehicle of 45% dimethylformamide in 0.2% aqueous Tween 80) for 5 min, followed by sensory testing for 60-80 mins. The effects of (−)-menthol and its stereoisomers isomenthol (1S,2R,5R-menthol,) and (+)-menthol (1S,2R,5S(+)-menthol) (4-16 mM in 80% ethanol) were also assessed. Relevant vehicles were always assessed in similar experiments. As a contrast, the effect of cinnamaldehyde (1.5 mM in water) and the effect of cinnamaldehyde with additional icilin (80 μM in water with 0.2% DMF) were assessed in naïve animals. […]

naïve rats [4] = experiment: Intrathecal application in naïve rats, behavioural reflex testing (PWL, PWT); conditions: naïve animals, cinnamaldehyde 75 nmol, allicin 25 nmol
Method: as §1, §3, §4

[5] = tested on: rats with chronic constriction injury (CCI); experiment: Cooling (16° C.)-induced analgesia in CCI rats with intrathecal mGluR antagonists; conditions: skin cooling to 16° C.; intrathecal LY 341495 5 nmol or UBP 1112 10 nmol
Method: as §2, with “Reflex testing commenced 5 minutes following challenge, unless animals had been anaesthetised, in which case 15 minutes was allowed for recovery. Six replicate animals were tested in all pharmacological experiments.” left out

[6] = tested on: rats with chronic constriction injury (CCI) to sciatic nerve; experiment: Topical application to paws of CCI rats, behavioural reflex testing (thermal PWL, mechanical PWT); conditions: icilin 200 μM topical; mGluR antagonists intrathecally
dorsal horn neurons = experiment: Extracellular recordings of single spinal dorsal horn neurons in CCI animals (brush-evoked firing)
Method: Peripheral: Recordings of saphenous (sensory) nerve were made in naïve animals (n=7) to assess the effects of topical icilin on primary afferents. In addition, recordings were carried out on animals which had undergone TRPM8 antisense or mis-sense treatment beginning 4-5 days previously. Rats were anaesthetised (with 0.6 ml 25% urethane/100 g, i.p.) and the saphenous nerve was exposed and dissected from its associated vein and artery. Further dissection under liquid paraffin enabled identification of afferent preparations comprising a small number of fibres. The conduction velocity of single identified afferent fibres was determined using bipolar electrodes and the peripheral stimulus technique^[43]. Following isolation of preparations, icilin (200 μM in water with 0.2% DMF), (−)-menthol (4 mM in 25% ethanol) resiniferatoxin (1 mM in ethanol) or vehicle alone were applied to the hindlimb receptive fields and neuronal responses recorded using the Chart programme (version 3.6). Central: Recordings of spinal dorsal horn neurons were made in CCI animals, as described previously^[39]. Following halothane induction, the jugular vein and trachea were canulated and intravenous anaesthetic delivered: α-chloralose ([…], Fisher) and urethane ([…], Sigma), with small supplementary doses of α-chloralose as required throughout the experiment. Core body temperature was maintained at 37-38° C. by means of a thermostatically controlled heated blanket. The animal was placed in a stereotaxic frame, and the thoracolumbar spinal column was supported using three pairs of swan-necked clamps. A laminectomy was performed at L2-L5, and agar (2% in saline at 37° C.) was delivered over exposed cord to increase mechanical stability. Above the recording region the agar and spinal cord dura were removed and liquid paraffin poured into the pool. Extracellular recordings were made from single multireceptive neurons in laminae I-IV through the centre barrel of a seven-barrelled glass microelectrode filled with 4M NaCl (tip-diameter […], DC resistance 5-8 MΩ). The receptive fields of hair-follicle innervated neurons on the distal hindlimb were identified by an innocuous brush stimulus^[39]. Icilin (200 μM in water with 0.2% DMF) was applied peripherally to the receptive field of individual recorded neurons, and the effect on neuronal response to a rotating brush was recorded and analysed using Spike2 programme (Version 3.2, CED). The Group III mGluR antagonist UBP 1112 (20 mM in water), pH 8.5, and control 1M NaCl, pH 8.5 were ionophoresed from the side barrels of the electrode using currents of between 20 nA and 80 nA (Neurophore BH2 ionophoresis system, Medical Systems, Great Neck, N.Y.) to measure effects on neuronal response to icilin.

In the case of `O=CC=Cc1ccccc1` [cinnamaldehyde], the “mean decrease in PWL” value (naïve rats [1]) is reported as 32.0±8.6%, the “mean decrease in PWT” value (naïve rats [1]) is reported as 20.2±8.2% and the “reflex responsiveness in thermal and mechanical tests” value ([2]; cinnamaldehyde 75 nmol intrathecal, contralateral as well as ipsilateral to nerve injury) is reported as “significantly increased reflex responsiveness”. For the same molecule, the “PWL (s) difference from control (no drug)” value ([3]; cinnamaldehyde intrathecal) was 5.9 ± 0.9 s, the “PWT (mN/mm^2) difference from control (no drug)” value ([3]; cinnamaldehyde intrathecal) was 2022.6 ± 375.4 mN/mm^2 and the “PWL (s) difference from control (no drug)” value ([3]; cinnamaldehyde topical) was 5.0 ± 1.5 s. For the same molecule, the “PWT (mN/mm^2) difference from control (no drug)” value ([3]; cinnamaldehyde topical) was 1002.0 ± 316.8 mN/mm^2, the “reduction in PWL” value (naïve rats [4]; diallyl disulphide 50 mmol) was 36.9±7.9% and the “reduction in PWT” value (naïve rats [4]; diallyl disulphide 50 mmol) was 41.9±6.7%.

`C=CCSSCC=C` [diallyl disulphide] was tested, and the “reduction in PWL” value (naïve rats [4]; diallyl disulphide) was 25.9±7.0% and the “reduction in PWT” value (naïve rats [4]; diallyl disulphide 50 mmol) was 28.5±6.2%.

`Cc1cc(C(C)(N)C(=O)O)ccc1P(=O)(O)O` (stereo not drawn) [UBP 1112] was tested, and the “mean percentage reversal of ipsilateral CCI-induced reductions in PWT caused by cooling” value [5] was 0.0±0.0%, the “mean percentage reversal of sensitisation by (−)-menthol with antagonist, PWL” value [2] was 9.2±6.9% and the “mean percentage reversal of sensitisation by (−)-menthol with antagonist, PWT” value [2] was 0.0±0.0%. For the same molecule, the “effect on analgesia by intrathecal icilin” value [2] was “prevented the effect of icilin”, the “effect of antagonist alone” value [2] was “Neither LY 341495 nor UBP 1112 had any effects alone” and the “effect on reversal of thermal and mechanical sensitisation by topical icilin” value [6] was “prevented”. For the same molecule, the “brush-induced firing rate with icilin plus UBP 1112” value (dorsal horn neurons; UBP 1112 ionophoresed at 20-60 nA, icilin 200 μM topical) was 80.2±9.3 % of control values and the “effect of UBP 1112 alone on neuronal responses” value (dorsal horn neurons; ionophoresis) was “had no effect alone”.

For `N[C@](CC1c2ccccc2Oc2ccccc21)(C(=O)O)[C@H]1C[C@@H]1C(=O)O` [LY 341495], the “mean percentage reversal of ipsilateral CCI-induced reductions in PWT caused by cooling” value [5] was 0.0±0.0%, the “mean percentage reversal of sensitisation by (−)-menthol with antagonist, PWL” value [2] was 22.0±6.9% and the “mean percentage reversal of sensitisation by (−)-menthol with antagonist, PWT” value [2] was 7.1±7.1%. For the same molecule, the “effect on analgesia by intrathecal icilin” value [2] was “prevented the effect of icilin”, the “effect of antagonist alone” value [2] was “Neither LY 341495 nor UBP 1112 had any effects alone” and the “effect on reversal of thermal and mechanical sensitisation by topical icilin” value [6] was “prevented”.

For `C=CCS[S+]([O-])CC=C` (stereo not drawn) [allicin], the “reduction in PWL” value (naïve rats [4]; diallyl disulphide 50 mmol) was 33.2±5.9% and the “reduction in PWT” value (naïve rats [4]; diallyl disulphide 50 mmol) was 20.7±8.2%.
